We go through four molecules from patent US20250002489A1, “BIFUNCTIONAL COMPOUNDS FOR DEGRADING ITK VIA UBIQUITIN PROTEOSOME PATHWAY” (NURIX THERAPEUTICS, INC., priority 2021, published 2025).

Test [1] deals with T1, ITK (C-terminal HiBiT-tagged Molt4 cells) (Homo sapiens, UniProt Q08881).
T1 construct: expressed in transfected cells; host or cells: Molt4 (ATCC CRL-1552), monoclonal clone 1C10, engineered to express HiBiT-tagged ITK
T1 sequence (Q08881 1-620): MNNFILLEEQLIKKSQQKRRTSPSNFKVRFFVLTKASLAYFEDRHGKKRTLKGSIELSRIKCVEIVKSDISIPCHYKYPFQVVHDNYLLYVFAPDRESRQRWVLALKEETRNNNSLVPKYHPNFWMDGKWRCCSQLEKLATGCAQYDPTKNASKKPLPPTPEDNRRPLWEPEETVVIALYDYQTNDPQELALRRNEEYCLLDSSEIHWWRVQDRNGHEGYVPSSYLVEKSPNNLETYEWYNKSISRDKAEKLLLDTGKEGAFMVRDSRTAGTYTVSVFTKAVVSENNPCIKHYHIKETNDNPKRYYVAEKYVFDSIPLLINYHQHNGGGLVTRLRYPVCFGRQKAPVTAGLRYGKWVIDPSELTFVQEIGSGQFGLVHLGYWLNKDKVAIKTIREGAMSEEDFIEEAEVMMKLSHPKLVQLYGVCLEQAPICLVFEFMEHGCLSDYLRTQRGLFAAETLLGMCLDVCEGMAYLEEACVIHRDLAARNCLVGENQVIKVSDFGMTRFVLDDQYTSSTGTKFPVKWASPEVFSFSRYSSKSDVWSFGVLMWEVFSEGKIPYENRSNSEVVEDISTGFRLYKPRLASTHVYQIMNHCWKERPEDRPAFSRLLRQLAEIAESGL
The test can be described thus: ITK Degradation HiBiT Assay. The class given is cell-based. Particulars: for DC50: 4 hrs incubation, best fit IC50 used as DC50; for Dmax: MOLT-4, 4 hrs incubation. On the procedure: Compounds provided herein were assayed in vitro with ITK HiBit cell lines. Compound dilution series (11-point, 5-fold dilutions in DMSO, columns 2-12 with replicate in rows A/B, C/D, E/F, G, and H at 2000× the final required concentrations were prepared in 96-well plate (Falcon, cat. no. 353077). Column 1, rows A-H were control DMSO. The 2000× solutions ranged from 2 mM to 1.024 nM (final assay concentration range 1 μM to 0.512 pM). The 2000×solutions were added to cells in 10 μL volume, for a final DMSO concentration of 0.5% and final assay compound concentration of 1×. For the cells, C-terminal HiBiT-tagged Molt4 cells (ATCC CRL-1552, monoclonal cell line clone 1C10) were plated at 1×10^6 cells/mL, 100 μL/well ([…]) in complete RPMI (10% FBS, 1% L-glutamine). The cells were incubated with compounds 1-25, 31, and 31 for 4 hrs at 32° C./6% CO2.
Following incubation, 100 μL of complete Nano-Glo HiBiT Lytic Detection Reagent (Nano-Glo HiBiT Lytic Buffer with 1:50 Nano-Glo HiBiT Lytic Substrate and 1:100 LgBiT Protein; Promega cat. no. N3O40) was added. Cells were further incubated for 10 min at room temperature. Luminescence units (LU) were read on an EnVision plate reader (Perkin Elmer, 0.1 sec per well). Percent ITK remaining per sample was calculated as follows: […]
Using Graphpad Prism, % ITK remaining values were plotted as a function of compound concentration. To determine DC50 and Dmax values, resulting curves were fit to the Prism curve-fitting equation “log(inhibitor) vs response−Variable slope (four parameters)” (reported best fit value IC50 used as DC50). ITK was measured with antibody-based MSD (Meso-Scale Discovery) assays shown below.

The target of test [2] is T2, ITK (Jurkat or Molt4 cells) (Homo sapiens, UniProt Q08881).
T2 construct: either human Jurkat (Clone E6-1 ATCC TIB-152) or Motl4 (ATCC CRL-1552), were plated; endogenous in cells; host or cells: Jurkat Clone E6-1 (ATCC TIB-152) or Molt4 (ATCC CRL-1552)
T2 sequence (Q08881 1-620): T1 sequence (Q08881 1-620)
The test can be described thus: ITK Degradation MSD (Meso Scale Discovery) Assay. Particulars: 4 or 6 hrs incubation. The class given is cell-based. An outline of the steps:
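Jurkat or Molt4 cells at 1×10^6 cells/mL in RPMI/10% FBS treated 4 or 6 hr at 32° C with 7-point, 5-fold compound dilutions (0.5% DMSO). Lysate ITK quantified by MSD sandwich ECL immunoassay; % ITK remaining fitted by four-parameter curve, IC50 taken as DC50, plus Dmax.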

On to `Cc1ncsc1-c1ccc([C@H](C)NC(=O)[C@@H]2C[C@@H](O)CN2C(=O)[C@@H](NC(=O)CCCCCCCC(=O)N2CC([C@@H](c3ccccc3)n3cc(NC(=O)c4n[nH]c5c4C[C@@H]4C(F)(F)[C@]4(C)C5)cn3)C2)C(C)(C)C)cc1` [Compound 28, (4aS,5aR)-5,5-difluoro-N-(1-((S)-(1-(9-(((S)-1-((2S,4R)-4-hydroxy-2-(((S)-1-(4-(4-methylthiazol-5-yl)phenyl)ethyl)carbamoyl)pyrrolidin-1-yl)-3,3-dimethyl-1-oxobutan-2-yl)amino)-9-oxononanoyl)azetidin-3-yl)(phenyl)methyl)-1H-pyrazol-4-yl)-5a-methyl-1,4,4a,5,5a,6-hexahydrocyclopropa[f]indazole-3-carboxamide], for which, in test [1], the DC50 was determined as 1.41 nM and the Dmax turned out to be 91%.

With `Cc1ncsc1-c1ccc([C@H](C)NC(=O)[C@@H]2C[C@@H](O)CN2C(=O)[C@@H](NC(=O)CCN2CCC(CCC(=O)N3CC([C@@H](c4ccccc4)n4cc(NC(=O)c5n[nH]c6c5C[C@@H]5C(F)(F)[C@]5(C)C6)cn4)C3)CC2)C(C)(C)C)cc1` [Compound 26, (4aS,5aR)-5,5-difluoro-N-(1-((S)-(1-(3-(1-(3-(((S)-1-((2S,4R)-4-hydroxy-2-(((S)-1-(4-(4-methylthiazol-5-yl)phenyl)ethyl)carbamoyl)pyrrolidin-1-yl)-3,3-dimethyl-1-oxobutan-2-yl)amino)-3-oxopropyl)piperidin-4-yl)propanoyl)azetidin-3-yl)(phenyl)methyl)-1H-pyrazol-4-yl)-5a-methyl-1,4,4a,5,5a,6-hexahydrocyclopropa[f]indazole-3-carboxamide], in test [1], it took 6.61 nM to reach half-maximal degradation (DC50).

In test [1], `Cc1ncsc1-c1ccc([C@H](C)NC(=O)[C@@H]2C[C@@H](O)CN2C(=O)[C@@H](NC(=O)CCCCCC(=O)N2CC([C@@H](c3ccccc3)n3cc(NC(=O)c4n[nH]c5c4C[C@@H]4C(F)(F)[C@]4(C)C5)cn3)C2)C(C)(C)C)cc1` [Compound 29, (4aS,5aR)-5,5-difluoro-N-(1-((S)-(1-(7-(((S)-1-((2S,4R)-4-hydroxy-2-(((S)-1-(4-(4-methylthiazol-5-yl)phenyl)ethyl)carbamoyl)pyrrolidin-1-yl)-3,3-dimethyl-1-oxobutan-2-yl)amino)-7-oxoheptanoyl)azetidin-3-yl)(phenyl)methyl)-1H-pyrazol-4-yl)-5a-methyl-1,4,4a,5,5a,6-hexahydrocyclopropa[f]indazole-3-carboxamide] registered a DC50 of 19.7 nM and a Dmax of 84%.

Turning to `Cc1ncsc1-c1ccc([C@H](C)NC(=O)[C@@H]2C[C@@H](O)CN2C(=O)[C@@H](NC(=O)c2ccc(N3CCC(CC(=O)N4CC([C@@H](c5ccccc5)n5cc(NC(=O)c6n[nH]c7c6C[C@@H]6C(F)(F)[C@]6(C)C7)cn5)C4)CC3)cn2)C(C)(C)C)cc1` [Compound 23, (4aS,5aR)-5,5-difluoro-N-(1-((S)-(1-(2-(1-(6-(((S)-1-((2S,4R)-4-hydroxy-2-(((S)-1-(4-(4-methylthiazol-5-yl)phenyl)ethyl)carbamoyl)pyrrolidin-1-yl)-3,3-dimethyl-1-oxobutan-2-yl)carbamoyl)pyridin-3-yl)piperidin-4-yl)acetyl)azetidin-3-yl)(phenyl)methyl)-1H-pyrazol-4-yl)-5a-methyl-1,4,4a,5,5a,6-hexahydrocyclopropa[f]indazole-3-carboxamide], the Dmax in test [2] is 91%. The molecule also came in with a 50% degradation concentration (DC50) in test [2] (best fit IC50 used as DC50) of 13.3 nM.

One may read the DC50 as the concentration at which degradation of the target reaches its halfway point. Read a high DC50 as degradation only at high concentration. The term Dmax denotes the greatest extent of degradation seen.
